# According to patent US8617614B2, “Sustained release preparation for tissue regeneration therapy” (Ono Pharmaceutical Co., Ltd., priority 2006, dated 2013):
# Key:
# [1] = Blood concentration measurement test; type: in vivo; details: male, Crl:CD (Sprague-Dawley), rat, plasma, 10 mg/kg
# Protocol: Male Crl:CD (Sprague-Dawley) rats (SPF; Charles River Japan; 8-week-old) were subcutaneously administered the various preparations (microspheres) shown in Table 9 below at a dose of 5 mL/kg under non-fasting conditions. […] The blood thus obtained was centrifuged at 12,000 rpm for 2 minutes, and the supernatant was collected as plasma.
# Blood concentration measurements of the present drug in the resulting plasma were carried out by a LC/MS/MS method. Pretreatment of the plasma consisted of adding an internal standard solution to the plasma and diluting with water, then loading into a solid-phase extraction cartridge column (ODS-B) and deproteinization by rinsing with water, followed by elution with methanol, concentration, and drying to hardness. The residue thus obtained was dissolved by adding 0.1% aqueous acetic acid/acetonitrile, and the resulting solution was poured into the LC/MS/MS apparatus.
# • Present drug (Precursor ion (m/z)*: 429.2; Product ion (m/z)*: 79.2) • Internal standard (Precursor ion (m/z)*: 445.4; Product ion (m/z)*: 168.1) • *: Mass-to-charge ratio Retention time for present drug: 8.15 minutes • Test Group 1: Microspheres of Test Preparation 1 were administered subcutaneously at a dose of the present drug of 10 mg/kg. • Test Group 2: Microspheres of Test Preparation 2 were administered subcutaneously at a dose of the present drug of 10 mg/kg. • Test Group 3: Administered subcutaneously at a dose of the present drug of 10 mg/kg. • Test Group 4: Administered orally at a dose of the present drug of 10 mg/kg.
# The test preparations used on the respective dose groups were formulated as shown below in Table 9. Each of the test preparations was prepared in general accordance with the method described in Preparation Example 1.
# [2] = test system: EGF; test: EGF production promoting effect, angiogenesis kit culture, ELISA; type: cell-based, human; details: 100 nmol/L
# Protocol: An angiogenesis kit (Kurabo Industries Ltd.) composed of normal human umbilical vein endothelial cells and normal human skin fibroblasts was procured and used.
# Using a carbon dioxide incubator (BNA-121D) and using Angiogenesis Culture 2 provided with the angiogenesis kit as the liquid culture, culturing was carried out in a wet environment at 37° C. with 5% carbon dioxide/95% air.
# Immediately after the kit arrived, the cells were cultured for 3 hours, following which the liquid culture was replaced and culturing was continued. Three days after the start of culturing, the liquid culture was again replaced. Six days after the start of culturing, treatment with the present drug was carried out by replacing the liquid culture. The treatment concentration was set to 100 nmol/L in each case. DMSO treatment was carried out as a negative control. Six, 24, 48 and 72 hours after treatment with the present drug, the culture supernatant was collected and furnished for measurement of the growth factors. The measured growth factors were EGF and SDF-1.
# The culture supernatant was measured with the following ELISA kits.
# Human EGF Immunoassay (R&D Systems Inc., DEG00)
# [3] = test system: hippocampal CA1 region nerve cells; test: Number of nerve cells in hippocampal CA1 region, rat 4-VO model (Nissl staining); type: in vivo
# [4] = test system: STZ induced diabetes model; test: Nerve conduction velocity, STZ induced diabetes model; type: in vivo; details: STZ rat, Test Group 3: 3 mg/kg oral twice daily
# Protocol: Female Sprague-Dawley rats (8- to 11-week-old; Japan SLC, Inc.) were intraperitoneally administered 40 mg/kg of a citrate buffer (pH, approx. 4.5) of streptozotocin (STZ; Sigma). A normal control group was intraperitoneally given only the citrate buffer. Two weeks after STZ administration, and 4, 8 and 12 weeks after the start of test solution administration, the animals were anesthetized by the intraperitoneal administration of 30 to 45 mg/kg of pentobarbital. Fur was removed from the dorsolumbar region of the rat and the animal was immobilized in the prone position, following which a needle electrode for […] stimulation (NEC Medical Systems) was inserted near the sciatic nerve, a needle electrode for […] stimulation was inserted near the Achilles tendon on the same side, and a recording needle electrode (NEC Medical Systems) was inserted in the plantar muscle on the same side. After checking that the body temperature was in a range of 37 to 38° C., square-wave stimulation (0.5 Hz, 0.1 msec, submax voltage) to the distal and proximal stimulating electrodes was applied using an electrical stimulator (SEN-3301; Nihon Kohden Corporation). The evoked potential was led out via a measuring electrode, input through a bioelectric amplifier (AB-621G, Nihon Kohden Corporation) to an evoked electromyogram averaging program (MTS50061C, Medical Try System) and averaged ten times, and the nerve conduction velocity was computed from the respective distal and proximal conduction times and the electrode interval distances. Measurement was carried out on the left leg (treated side) and right leg (untreated side) in each test group, and the respective average values thereof used as the data. In Groups 2 to 5, the feeding blood sugar level two weeks after STZ administration was measured. Of rats with blood sugar levels above 300 mg/dL, severely diabetic rats were excluded therefrom, and the remaining rats were used as diabetes model animals. Groups were formed in such a way as to make the respective groups uniform with respect to nerve conduction velocity, blood sugar level and body weight. Administration was carried out in accordance with the intended route of administration for clinical use. In Test Group 3, forced administration was carried out orally using a disposable syringe barrel and a rat stomach probe. In Test Group 4, intramuscular administration was carried out uniformly at four places within the muscle along the sciatic nerve in the femoral portion of the left leg. For subcutaneous administration in test Group 5, the animals were ether anesthetized, and subcutaneous administration was carried out in the dorsal region using a disposable syringe barrel and a disposable 25 G syringe needle. The volume of solution administered was computed based on the latest body weight. The amount of microspheres administered indicates the amount of the present drug included.
# [5] = po, Test Group 4: present drug oral 10 mg/kg
# [6] = sc, Test Group 3: present drug s.c. 10 mg/kg
# [7] = right leg (drug-untreated side)
structure (smiles),measurement,setting,value
"O=C(O)COc1cccc2c1CCC=C2CCO/N=C(\c1ccccc1)c1cccnc1 [present drug, ({5-[2-({[(1E)-phenyl(pyridin-3-yl)methylene]amino}oxy)ethyl]-7,8-dihydronaphthalen-1-yl}oxy)acetic acid]",concentration at 1 hour,[1]; [5],785 ng/mL
same,concentration at 2 hours,[1]; [5],982 ng/mL
same,concentration at 4 hours,[1]; [5],1320 ng/mL
same,concentration at 8 hours,[1]; [5],705 ng/mL
same,concentration at 1 day,[1]; [5],80 ng/mL
same,concentration at 3 days,[1]; [5],0.04 ng/mL
same,concentration at 1 hour,[1]; [6],1750 ng/mL
same,concentration at 2 hours,[1]; [6],1400 ng/mL
same,concentration at 4 hours,[1]; [6],685 ng/mL
same,concentration at 8 hours,[1]; [6],870 ng/mL
same,concentration at 12 hours,"[1]; sc, Test Group 3: present drug s.c. 10 mg/kg, 12 hours",204 ng/mL
same,concentration at 1 day,[1]; [6],1.05 ng/mL
same,concentration at 2 days,"[1]; sc, Test Group 3: present drug s.c. 10 mg/kg, 2 days",< 0.2 ng/mL
same,concentration at 3 days,[1]; [6],0.05 ng/mL
same,EGF relative to the solvent control group,[2]; 72 hours after treatment,significantly increased
same,"EGF, Drug group",[2]; culture supernatant 72 hours after treatment,4995 ± 442 pg/mL
same,number of hippocampal CA1 pyramidal nerve cells relative to the group given the medium (Test Group 3),"[3]; rat 4-VO Test 1, day 42, s.c. twice daily, present drug 10, ornoprostil 0.1, PGE1•αCD 1.5 and 3 mg/kg",significant increase
same,decrease in the number of hippocampal CA1 region nerve cells relative to Test Group 1,"[3]; rat 4-VO Test 2, Test Group 2: 10 mg/kg oral twice daily, day 8",significant suppression
same,number of hippocampal CA1 region nerve cells,"[3]; rat 4-VO Test 2, Test Group 7: medium up to day 8, 10 mg/kg oral for 34 days from day 9",increasing trend
same,number of hippocampal CA1 region nerve cells relative to Test Group 4,"[3]; rat 4-VO Test 2, oral 1 mg/kg (Test Group 3)",significant increases
same,number of hippocampal CA1 region nerve cells relative to Test Group 4,"[3]; rat 4-VO Test 2, oral 10 mg/kg (Test Group 6)",significant increases
same,left leg nerve conduction velocity relative to Test Group 2,[4]; after 12 weeks,significant nerve conduction velocity increases
same,right leg nerve conduction velocity relative to Test Group 2,[4]; at any of the times,A significant extension effect was not confirmed
same,Nerve conduction velocity (m/sec) 0 weeks,[4]; left leg (drug-treated side),37.5 ± 8.0 m/sec
same,Nerve conduction velocity (m/sec) 4 weeks,[4]; left leg (drug-treated side),37.8 ± 3.8 m/sec
same,Nerve conduction velocity (m/sec) 8 weeks,[4]; left leg (drug-treated side),40.8 ± 3.4 m/sec
same,Nerve conduction velocity (m/sec) 0 weeks,[4]; [7],38.7 ± 5.0 m/sec
same,Nerve conduction velocity (m/sec) 4 weeks,[4]; [7],39.0 ± 2.3 m/sec
same,Nerve conduction velocity (m/sec) 8 weeks,[4]; [7],39.9 ± 2.2 m/sec
same,Nerve conduction velocity (m/sec) 12 weeks,[4]; [7],41.3 ± 2.1 m/sec
